According to patent publication EP4778933A1 (Chengdu Hyperway Pharmaceuticals Co., Ltd., priority 2023, dated 2025):
Read-outs that look alike come from different tables or passages of the source.

Tests used:
RKN (KRAS G12V) = assay: 3D cell proliferation inhibition test (CellTiter-Glo 3D, 7 days), RKN; type: cell-based; settings: 168 h, read-out: Inhibitory activity on cell proliferation (IC50) RKN (KRAS G12V)
Experimental: (§1) The diluted compounds to be tested were added to 384-well low-adhesion KRAS mutant types (such as GP2D, NCI H358, LoVo, RKN and KP2) of cell culture plates by using a nanoliter pipetting system (LABCYTE, P-0200). Then, the cells were plated and incubated in a 37°C, 5% CO2 incubator for 7 days. Afterward, CellTiter-Glo® 3D reagent was added, and the luminescent values were read by an Envision multifunctional microplate reader (the luminescent signal is proportional to the amount of ATP in the system, and the ATP content directly represents the number of viable cells in the system). Finally, the IC50 values (half-maximal inhibitory concentration) of the compounds were obtained by the XLFIT software using the nonlinear fitting formula.
(§2) • a) The diluted compounds to be tested were added to 384-well low-adhesion KRAS mutant types of cell culture plates by using a nanoliter pipetting system. • b) Cells were seeded into the 384-well plates in a) and then centrifuged at 1000 rpm for 1 min at room temperature, with a final DMSO concentration of compound being 0.5%. The plates were then incubated in a 5% CO2 constant-temperature incubator at 37°C for 7 days. • c) CellTiter-Glo® 3D was added to the 384-well cell culture plates in b), shaken in the dark, and incubated at room temperature. • d) The luminescence values were read by using an Envision multifunctional microplate reader.
(§3) The IC50 (half-maximal inhibitory concentration) values of the compounds were obtained by using XLFIT software according to the following nonlinear fitting formula: Y = Bottom + (Top−Bottom)/(1+10^(∧)((LogIC50−X)×HillSlope)) [formula] • X: log value of compound concentration. • Y: inhibition rate (%) [formula] • Negative control: DMSO. • Positive control: Medium only.

[1] = In vivo pharmacokinetic test in mice; settings: female BALB/c mice, oral, single dose 30 mg/kg, plasma
Experimental: (§4) Each test compound was administered orally once to female BALB/c mice for pharmacokinetic study. The test compounds were prepared on the day of administration. The oral administration solvent: 50 mM sodium citrate (pH 5.0) + 10% captisol. The oral administration was conducted in a dose of 30 mg/kg. The animals were fasted for 10-14 h before oral administration, and the feeding was resumed 4 h after administration. Pharmacokinetic samples were collected through the orbit. The collection time points were: 15 min, 30 min, 1 h, 2 h, 4 h, 6 h, 8 h and 24 h after administration. Three whole blood samples were collected at each time point, with a collection volume of about 0.2 mL, and anticoagulated with sodium heparin. After blood samples were collected, they were immediately placed on ice and centrifuged within 1 h to isolate plasma (centrifugation conditions: 8000 rpm, 1 min, 2-8°C). The collected plasma was stored in a -20°C refrigerator before analysis. The concentrations of compounds in the plasma samples were determined using an LC-MS/MS analysis method.

[2] = In vivo pharmacokinetic test in rats; parameters: species or system SD Rats; settings: Sprague-Dawley (SD), rat; male rats, oral, single dose 30 mg/kg, plasma
Experimental: as §4, with “once to male […] rats” for “once to female BALB/c mice”, “male BALB/c rats for pharmacokinetic” for “female BALB/c mice for pharmacokinetic”, “administration. The intravenous administration solvent: 5% DMSO + 10% solutol + 85% saline; and the oral administration” for “administration. The oral administration”, “points were: 5 min (intravenous administration), 15 min,” for “points were: 15 min,”, “analysis method. Table 4: Pharmacokinetic test results of some compounds in SD Rats” for “analysis method.”

[3] = tested on: KRAS G12C-mediated ERK phosphorylation; assay: Inhibition of KRAS G12C-mediated ERK phosphorylation in NCI H358 cells; type: cell-based; settings: Homo sapiens, 3 h incubation, read-out: Inhibitory activity on ERK phosphorylation (IC50) NCI H358-G12C
Experimental: (§5) Day 1: AGS cells, SW480 cells, NCI H358 cells, HCT116 cells, and KP2 cells were seeded into 384-well cell culture plates and cultured overnight in a 37°C, 5% CO2 incubator.
(§6) Day 2: The compounds were added to the plates using Echo550 and incubated for 3 h in a 37°C, 5% CO2 incubator. Then, cells fixed with paraformaldehyde, permeated with methanol and blocked with a blocking solution were added. Finally, a mixed solution of primary antibodies (rabbit anti pERK, mouse anti GAPDH) was added, and the mixture was incubated overnight at 4°C.
(§7) Day 3: The mixed solution of primary antibodies was discarded, and a mixed solution of secondary antibodies (goat anti rabbit 800 CW, goat anti mouse 680 RD) was added. The resulting mixture was incubated at room temperature in the dark. Finally, the cell culture plate was washed with PBST, and then inverted for 1 minute of centrifugation. The fluorescence signal values were read with Odyssey CLx.
(§8) ERK phosphorylation was calculated according to the following formula: [formula] • Negative control: DMSO • Positive control: 10 µM Reference • IC50 value was fitted and calculated by XLFit 5.0 using the parametric formula. • Y = Bottom+(Top-Bottom)/(1+10^((LogIC50-X)*HillSlope)) • X: log value of compound concentration. • Y: average value of relative expression of p-ERK between replicate wells.

[4] = tested on: human ovarian cancer RKN mouse xenograft tumors; assay: In vivo drug efficacy, RKN subcutaneous xenograft tumor model; parameters: species or system Balb/c nude mice; settings: 50 mg/kg, PO
Experimental: A subcutaneous xenograft tumor model of human ovarian cancer RKN (derived from uterine leiomyosarcoma) cells was established in Balb/c nude mice. RKN tumor cells resuspended in Ham's F12 medium were inoculated subcutaneously on the right side of the experimental animals at 5×10^6 + gel/0.1 mL. When the tumor grew to about 150-200 mm^3, 20 animals having relatively uniform tumor volumes were selected for group administration, with a total of 4 groups, 5 animals in each group. On the day of the experiment, the animals were given the corresponding drugs according to the groups. The first group G1 was set as a solvent group, and 50 mM citrate buffer (pH 5.0) + 10% Captisol was given by gavage alone. The second group G2 was given a 50 mM citrate buffer (pH 5.0) + 10% Captisol of compound 21. The third group G3 was given a 50 mM citrate buffer (pH 5.0) + 10% Captisol of compound 26. The fourth group G4 was given a 50mM citrate buffer (pH 5.0) + 10% Captisol of compound 31. Table 7: Study on effect of test substances on animal tumor size in the human ovarian cancer RKN mouse xenograft tumor model
During the experiment, the body weight and tumor size of the animals were measured twice a week, and the clinical symptoms of the animals were observed and recorded every day. Each drug administration was based on the most recent weighing of the animals.
The tumor was measured with a digital vernier caliper to measure the length (a) and width (b). The tumor volume (TV) was calculated using the following formula: TV = a × b^2 /2. [formula]

[5] = tested on: KRAS G12V-mediated ERK phosphorylation; assay: Inhibition of KRAS G12V-mediated ERK phosphorylation in SW480 cells; type: cell-based; settings: 3 h incubation, read-out: Inhibitory activity on ERK phosphorylation (IC50) SW480-G12V
Experimental: as §5, §6, §7, §8

[6] = tested on: KRAS G13D-mediated ERK phosphorylation; assay: Inhibition of KRAS G13D-mediated ERK phosphorylation in HCT116 cells; type: cell-based; settings: Homo sapiens, HCT-116, 3 h incubation, read-out: Inhibitory activity on ERK phosphorylation (IC50) HCT116-G13D
Experimental: as §5, §6, §7, §8

[7] = tested on: KRAS G12R-mediated ERK phosphorylation; assay: Inhibition of KRAS G12R-mediated ERK phosphorylation in KP2 cells; type: cell-based; settings: 3 h incubation, read-out: Inhibitory activity on ERK phosphorylation (IC50) KP2-G12R
Experimental: as §5, §6, §7, §8

GP2D (KRASG12D) = assay: 3D cell proliferation inhibition test (CellTiter-Glo 3D, 7 days), GP2D; type: cell-based; settings: 168 h, read-out: Inhibitory activity on cell proliferation (IC50) GP2D (KRASG12D)
Experimental: as §1, §2, §3

[8] = tested on: KRAS G12D-mediated ERK phosphorylation; assay: Inhibition of KRAS G12D-mediated ERK phosphorylation in AGS cells (in-cell pERK/GAPDH immunofluorescence); type: cell-based; settings: AGS cells, 3 h incubation, read-out: Inhibitory activity on ERK phosphorylation (IC50) AGS-G12D
Experimental: as §5, §6, §7, §8

Row | AUC ([1]; 30 mg/kg) | Cmax ([1]; 30 mg/kg) | AUC [2] | Cmax [2] | IC50 ([5]; Homo sapiens, SW480, 3 h) | IC50 [6] | IC50 [7] | IC50 [8] | IC50 [5] | SMILES | IC50 (RKN (KRAS G12V)) | IC50 [3] | inhibitory effects on human ovarian cancer RKN mouse xenograft tumors ([4]; BID, 28 days) | Tumor volume inhibition rate (TGI) ([4]; RKN xenograft, BID × 28, day 28) | IC50 (GP2D (KRASG12D)) | AUC ([1]; mouse, read-out: AUC) | Cmax ([1]; mouse, read-out: Cmax) | IC50 ([8]; Homo sapiens, AGS, 3 h)
1 | 30872 ng·h/mL | 5218 ng/mL | 5290 ng·h/mL | 866 ng/mL | 7.8 nM | 45 nM | 146 nM | 4.7 nM | – | CC1(O)COCCN(c2nc(OCC34CCCN3C(c3cc(F)c(F)c(F)c3)CC4)nc3c(F)c(-c4cccc5sc(N)c(C#N)c45)c(Cl)cc23)C1 (single isomer, unassigned) [Example 21, 2-amino-4-[6-chloro-8-fluoro-4-(6-hydroxy-6-methyl-1,4-oxazepan-4-yl)-2-({[3-(3,4,5-trifluorophenyl)-2,3,5,6,7,7a-hexahydro-1H-pyrrolizin-7a-yl]methyl}oxy)quinazolin-7-yl]benzo[b]thiophene-3-carbonitrile] | 7.23 nM | 2.04 nM | significant inhibitory effects | 109% | 4.26 nM | – | – | –
2 | 37427 ng·h/mL | 5544 ng/mL | – | – | – | 63 nM | 148 nM | 3.3 nM | 2.4 nM | CC1(O)COCCN(c2nc(OCC34CCCN3C(c3cc(F)c(F)c(F)c3)CC4)nc3c(F)c(-c4ccc(F)c5sc(N)c(C#N)c45)c(Cl)cc23)C1 (single isomer, unassigned) [Example 12, 2-amino-4-[6-chloro-8-fluoro-4-(6-hydroxy-6-methyl-1,4-oxazepan-4-yl)-2-({[3-(3,4,5-trifluorophenyl)-2,3,5,6,7,7a-hexahydro-1H-pyrrolizin-7a-yl]methyl}oxy)quinazolin-7-yl]-7-fluorobenzo[b]thiophene-3-carbonitrile] | – | 3.1 nM | – | – | – | – | – | –
3 | – | – | – | – | – | – | – | – | > 1000 nM | CC1(O)COCCN(c2nc(OCC34CCCN3C(c3cc(F)c(F)c(F)c3)CC4)nc3c(F)c(-c4ccc(F)c5sc(N)c(C#N)c45)c(Cl)cc23)C1 (single isomer, unassigned) [Example 11, 2-amino-4-[6-chloro-8-fluoro-4-(6-hydroxy-6-methyl-1,4-oxazepan-4-yl)-2-({[3-(3,4,5-trifluorophenyl)-2,3,5,6,7,7a-hexahydro-1H-pyrrolizin-7a-yl]methyl}oxy)quinazolin-7-yl]-7-fluorobenzo[b]thiophene-3-carbonitrile] | – | – | – | – | – | – | – | –

Row | SMILES | AUC ([1]; 30 mg/kg) | Cmax ([1]; 30 mg/kg) | AUC [2] | Cmax [2] | IC50 ([5]; Homo sapiens, SW480, 3 h) | IC50 [6] | IC50 [7] | IC50 [8] | IC50 [5] | IC50 (RKN (KRAS G12V)) | IC50 [3] | inhibitory effects on human ovarian cancer RKN mouse xenograft tumors ([4]; BID, 28 days) | Tumor volume inhibition rate (TGI) ([4]; RKN xenograft, BID × 28, day 28) | IC50 (GP2D (KRASG12D)) | AUC ([1]; mouse, read-out: AUC) | Cmax ([1]; mouse, read-out: Cmax) | IC50 ([8]; Homo sapiens, AGS, 3 h)
4 | CC1(O)COCCN(c2nc(OCC34CCCN3C(c3cc(F)c(F)c(F)c3)CC4)nc3c(F)c(-c4cccc5sc(N)c(C#N)c45)c(Br)cc23)C1 (stereo not drawn) [Example 23, 2-amino-4-[6-bromo-8-fluoro-4-(6-hydroxy-6-methyl-1,4-oxazepan-4-yl)-2-({[3-(3,4,5-trifluoropheny 1)-2,3,5,6,7,7a-hexahydro-1H-pyrrolizin-7a-yl]methyl}oxy)quinazolin-7-yl]benzo[b]thiophene-3-carb onitrile] | – | – | – | – | – | 94 nM | 663 nM | – | – | – | 4.9 nM | – | – | – | 9230 ng·h/mL | 3620 ng/mL | 4.2 nM
